# From patent publication US9303016B2, “Derivatives of aza adamantane and uses thereof” (CONNEXIOS LIFE SCIENCES PVT. LTD., priority 2011, dated 2016)
# Target: T1, human full length HSD11β1 (Homo sapiens, UniProt P28845)
# T1 construct: transient expression of human full length HSD11β1 expression vector; host or cells: CHO cells, transient transfection
# Assay: In Vitro HSD11β1 Inhibition Assay
# Type: cell-based
# Conditions: CHO cells transiently expressing human HSD11β1; 200 nM cortisone+500 uM NADPH overnight; cortisone to cortisol by LC/MS-MS; read-out: 11βHSD1 (IC50)
# In short: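 Whole-cell assay in CHO cells transiently transfected with full-length human HSD11β1, re-seeded 24 h after transfection. Cells incubated overnight with 200 nM cortisone plus 500 uM NADPH, with or without inhibitor. Cortisone-to-cortisol conversion measured by LC/MS-MS; IC50 (nM) from an 8-point log concentration-inhibition curve.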
# T1 sequence (P28845 whole entry): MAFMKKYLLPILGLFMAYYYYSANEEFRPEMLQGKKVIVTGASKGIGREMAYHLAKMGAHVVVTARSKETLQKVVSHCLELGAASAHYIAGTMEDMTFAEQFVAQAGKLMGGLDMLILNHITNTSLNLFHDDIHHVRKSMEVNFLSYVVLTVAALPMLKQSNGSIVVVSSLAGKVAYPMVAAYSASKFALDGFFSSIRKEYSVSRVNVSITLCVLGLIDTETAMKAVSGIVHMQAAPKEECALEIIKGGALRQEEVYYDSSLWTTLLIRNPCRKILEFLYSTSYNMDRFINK
row,Compound,IC50 [nM]
1,"Cc1c(F)ccc2[nH]cc(C(C)CC(=O)N3C4CC5CC3CC(O)(C5)C4)c12 (centres unmarked) [Compound 139, 3-(5-fluoro-4-methyl-1H-indol-3-yl)-1-(5-hydroxy-2-azatricyclo[3.3.1.1^3,7]dec-2-yl)butan-1-one]",< 100
2,"CC(CC(=O)N1C2CC3CC1CC(C(=O)O)(C3)C2)c1c[nH]c2ccc(-c3ccccc3)cc12 (centres unmarked) [Compound 142, 2-[3-(5-phenyl-1H-indol-3-yl)butanoyl]-2-azatricyclo[3.3.1.1^3,7]decane-5-carboxylic acid]",> 250
3,"CC(CC(=O)N1C2CC3CC1CC(CC(=O)O)(C3)C2)c1c[nH]c2cccc(Cl)c12 (centres unmarked) [Compound 145, {2-[3-(4-chloro-1H-indol-3-yl)butanoyl]-2-azatricyclo[3.3.1.1^3,7]dec-5-yl}acetic acid]",100 to 150
4,"CC(CC(=O)N1C2CC3CC1CC(c1nnn[nH]1)(C3)C2)c1c[nH]c2cccc(C3CC3)c12 (centres unmarked) [Compound 149, 3-(4-cyclopropyl-1H-indol-3-yl)-1-[5 (1H-tetrazol-5-yl)-2-azatricyclo[3.3.1.1^3,7]dec-2-yl]butan-1-one]",> 250
5,"CC(CC(=O)N1C2CC3CC1CC(CC(=O)O)(C3)C2)c1c[nH]c2cccc(C3CC3)c12 (centres unmarked) [Compound 152, {2-[3-(4-cyclopropyl-1H-indol-3-yl)butanoyl]-2-azatricyclo[3.3.1.1^3,7]dec-5-yl}acetic acid]",100 to 150
6,"CC(CC(=O)N1C2CC3CC1CC(O)(C3)C2)c1c[nH]c2cccc(-c3cccs3)c12 (centres unmarked) [Compound 153, 1-(5-hydroxy-2-azatricyclo[3.3.1.1^3,7]dec-2-yl)-3-[4-(thiophen-2-yl)-1H-indol-3-yl]butan-1-one]",< 100
7,"CC(CC(=O)N1C2CC3CC1CC(CC(=O)O)(C3)C2)c1c[nH]c2cccc(-c3cccs3)c12 (centres unmarked) [Compound 154, (2-{3-[4-(thiophen-2-yl)-1H-indol-3-yl]butanoyl}-2-azatricyclo[3.3.1.1^3,7]dec-5-yl)acetic acid]",> 250
8,"O=C(O)CC12CC3CC(C1)N(C(=O)CC(c1cccs1)c1c[nH]c4cccc(F)c14)C(C3)C2 (centres unmarked) [Compound 159, {2-[3-(4-fluoro-1H-indol-3-yl)-3-(thiophen-2-yl)propanoyl]-2-azatricyclo[3.3.1.1^7]dec-5-yl}acetic acid]",100 to 150
9,"Cc1ccc2[nH]cc(C(C)CC(=O)N3C4CC5CC3CC(O)(C5)C4)c2c1C1CC1 (centres unmarked) [Compound 160, 3-(4-cyclopropyl-5-methyl-1H-indol-3-yl)-1-(5-hydroxy-2-azatricyclo[3.3.1.1^3,7]dec-2-yl)butan-1-one]",100 to 150
10,"CC(CC(=O)N1C2CC3CC1CC(CC(=O)O)(C3)C2)c1c[nH]c2ccc(Cl)c(Br)c12 (centres unmarked) [Compound 162, {2-[3-(4-bromo-5-chloro-1H-indol-3-yl)butanoyl]-2-azatricyclo[3.3.1.1^3,7]dec-5-yl}acetic acid]",150 to 200
11,"CC(CC(=O)N1C2CC3(O)CC1CC(O)(C2)C3)c1c[nH]c2ccc(Cl)c(C3CC3)c12 (centres unmarked) [Compound 163, 3-(5-chloro-4-cyclopropyl-1H-indol-3-yl)-1-(5,7-dihydroxy-2-azatricyclo[3.3.1.1^3,7]dec-2-yl)butan-1-one]",> 250
12,"Cc1ccc2[nH]cc(C(C)CC(=O)N3C4CC5CC3CC(O)(C5)C4)c2c1C (centres unmarked) [Compound 164, 3-(4,5-dimethyl-1H-indol-3-yl)-1-(5-hydroxy-2-azatricyclo[3.3.1.1^3,7]dec-2-yl)butan-1-one]",100 to 150
13,"COc1ccc2[nH]cc(C(C)CC(=O)N3C4CC5CC3CC(O)(C5)C4)c2c1C (centres unmarked) [Compound 165, 1-(5-hydroxy-2-azatricyclo[3.3.1.1^3,7]dec-2-yl)-3-(5-methoxy-4-methyl-1H-indol-3-yl)butan-1-one]",> 250
14,"Cc1ccc2[nH]cc(C(C)CC(=O)N3C4CC5CC3CC(O)(C5)C4)c2c1Cl (centres unmarked) [Compound 166, 3-(4-chloro-5-methyl-1H-indol-3-yl)-1-(5-hydroxy-2-azatricyclo[3.3.1.1^3,7]dec-2-yl)butan-1-one]",< 100
15,"CC(CC(=O)N1C2CC3CC1CC(C(C)C(=O)O)(C3)C2)c1c[nH]c2cccc(C3CC3)c12 (centres unmarked) [Compound 167, 2-{2-[3-(4-cyclopropyl-1H-indol-3-yl)butanoyl]-2-azatricyclo[3.3.1.1^3,7]dec-5-yl}propanoic acid]",200 to 250
16,"CC(CC(=O)N1C2CC3CC1CC(O)(C3)C2)c1c[nH]c2ccc(Cl)c(Cl)c12 (centres unmarked) [Compound 168, 3-(4,5-dichloro-1H-indol-3-yl)-1-(5-hydroxy-2-azatricyclo[3.3.1.1^3,7]dec-2-yl)butan-1-one]",< 100
17,"COc1ccc2[nH]cc(C(C)CC(=O)N3C4CC5CC3CC(O)(C5)C4)c2c1C1CC1 (centres unmarked) [Compound 171, 3-(4-cyclopropyl-5-methoxy-1H-indol-3-yl)-1-(5-hydroxy-2-azatricyclo[3.3.1.1^3,7]dec-2-yl)butan-1-one]",200 to 250
18,"Cc1ccc2[nH]cc(C(C)CC(=O)N3C4CC5CC3CC(F)(C5)C4)c2c1C (centres unmarked) [Compound 176, 3-(4,5-dimethyl-1H-indol-3-yl)-1-(5-fluoro-2-azatricyclo[3.3.1.1^3,7]dec-2-yl)butan-1-one]",> 250

row,Compound,IC50 [nM]
1,"CC(CC(=O)N1C2CC3CC1CC(O)(C3)C2)c1c[nH]c2cccc(N3CCCCC3)c12 (centres unmarked) [Compound 180, 1-(5-hydroxy-2-azatricyclo[3.3.1.1^3,7]dec-2-yl)-3-[4-(piperidin-1-yl)-1H-indol-3-yl]butan-1-one]",> 250
2,"CC(C)Oc1cccc2[nH]cc(C(C)CC(=O)N3C4CC5CC(C4)CC3C5)c12 (centres unmarked) [Compound 181, 1-(2-azatricyclo[3.3.1.1^3,7]dec-2-yl)-3-[4-(propan-2-yloxy)-1H-indol-3-yl]butan-1-one]",> 250
3,"CC(C)Oc1cccc2[nH]cc(C(C)CC(=O)N3C4CC5CC3CC(F)(C5)C4)c12 (centres unmarked) [Compound 182, 1-(5-fluoro-2-azatricyclo[3.3.1.1^3,7]dec-2-yl)-3-[4-(propan-2-yloxy)-1H-indol-3-yl]butan-1-one]",150 to 200
4,"CC(CC(=O)N1C2CC3CC(C2)CC1C3)c1c[nH]c2cccc(N3CCC(C(=O)O)CC3)c12 (centres unmarked) [Compound 183, 1-{3-[4-(2-azatricyclo[3.3.1.1^3,7]dec-2-yl)-4-oxobutan-2-yl]-1H-indol-4-yl}piperidine-4-carboxylic acid]",> 250
5,"CC(CC(=O)N1C2CC3CC1CC(C(C)C(=O)O)(C3)C2)c1c[nH]c2cccc(Cl)c12 (centres unmarked) [Compound 186, 2-{2-[3-(4-chloro-1H-indol-3-yl)butanoyl]-2-azatricyclo[3.3.1.1^3,7]dec-5-yl}propanoic acid]",> 250
6,"CC(CC(=O)N1C2CC3CC1CC(O)(C3)C2)c1c[nH]c2cccc(-c3ccsc3)c12 (centres unmarked) [Compound 187, 1-(5-hydroxy-2-azatricyclo[3.3.1.1^3,7]dec-2-yl)-3-[4-(thiophen-3-yl)-1H-indol-3-yl]butan-1-one]",100 to 150
7,"CC(CC(=O)N1C2CC3CC1CC(O)(C3)C2)c1nc2cc(Cl)ccc2s1 (centres unmarked) [Compound 190, 3-(5-chloro-1,3-benzothiazol-2-yl)-1-(5-hydroxy-2-azatricyclo[3.3.1.1^3,7]dec-2-yl)butan-1-one]",150 to 200
8,"CC(CC(=O)N1C2CC3CC1CC(C#N)(C3)C2)c1nc2cc(Cl)ccc2s1 (centres unmarked) [Compound 191, 2-[3-(5-chloro-1,3-benzothiazol-2-yl)butanoyl]-2-azatricyclo[3.3.1.1^3,7]decane-5-carbonitrile]",> 250
9,"CC(CC(=O)N1C2CC3CC1CC(O)(C3)C2)c1nc2ccc(Cl)cc2s1 (centres unmarked) [Compound 192, 3-(6-chloro-1,3-benzothiazol-2-yl)-1-(5-hydroxy-2-azatricyclo[3.3.1.1^3,7]dec-2-yl)butan-1-one]",< 100
10,"CC(CC(=O)N1C2CC3CC1CC(C(N)=O)(C3)C2)c1nc2ccc(Cl)cc2s1 (centres unmarked) [Compound 196, 2-[3-(6-chloro-1,3-benzothiazol-2-yl)butanoyl]-2-azatricyclo[3.3.1.1^3,7]decane-5-carboxamide]",> 250
11,"CC(CC(=O)N1C2CC3CC1CC(O)(C3)C2)c1c[nH]c2ncc(Cl)c(Cl)c12 (centres unmarked) [Compound 197, 3-(4,5-dichloro-1H-pyrrolo[2,3-b]pyridin-3-yl)-1-(5-hydroxy-2-azatricyclo[3.3.1.1^3,7]dec-2-yl)butan-1-one]",< 100
12,"CC(CC(=O)N1C2CC3CC1CC(O)(C3)C2)c1c[nH]c2ncc(Cl)c(C3CC3)c12 (centres unmarked) [Compound 198, 3-(5-chloro-4-cyclopropyl-1H-pyrrolo[2,3-b]pyridin-3-yl)-1-(5-hydroxy-2-azatricyclo[3.3.1.1^3,7]dec-2-yl)butan-1-one]",< 100
13,"CC(CC(=O)N1C2CC3CC1CC(O)(C3)C2)c1c[nH]c2ncc(C3CC3)c(C3CC3)c12 (centres unmarked) [Compound 201, 3-(4,5-dicyclopropyl-1H-pyrrolo[2,3-b]pyridin-3-yl)-1-(5-hydroxy-2-azatricyclo[3.3.1.1^3,7]dec-2-yl)butan-1-one]",> 250
14,"CC(CC(=O)N1C2CC3CC1CC(O)(C3)C2)c1nc2ccc(Cl)cc2[nH]1 (centres unmarked) [Compound 202, 3-(6-chloro-1H-benzimidazol-2-yl)-1-(5-hydroxy-2-azatricyclo[3.3.1.1^3,7]dec-2-yl)butan-1-one]",> 250
15,"Cc1cccc2c1c(C(C)CC(=O)N1C3CC4CC1CC(O)(C4)C3)cn2C1CC1 (centres unmarked) [Compound 205, 3-(1-cyclopropyl-4-methyl-1H-indol-3-yl)-1-(5-hydroxy-2-azatricyclo[3.3.1.1^3,7]dec-2-yl)butan-1-one]",> 250
16,"Cc1cccc2c1c(C(C)CC(=O)N1C3CC4CC1CC(O)(C4)C3)cn2C (centres unmarked) [Compound 206, 3-(1,4-dimethyl-1H-indol-3-yl)-1-(5-hydroxy-2-azatricyclo[3.3.1.1^3,7]dec-2-yl)butan-1-one]",> 250
17,"CC(CC(=O)N1C2CC3CC1CC(O)(C3)C2)c1cn(C)c2cccc(Cl)c12 (centres unmarked) [Compound 207, 3-(4-chloro-1-methyl-1H-indol-3-yl)-1-(5-hydroxy-2-azatricyclo[3.3.1.1^3,7]dec-2-yl)butan-1-one]",100 to 150
